Test results: patent US20230149428A1, “METHOD OF TREATING GENE THERAPY ASSOCIATED TOXICITY WITH ANTIBIOTICS” (Asklepios BioPharmaceutical, Inc., priority 2020, published 2023)

Assays:
[1] = test system: IL-2, IL-6, IL-7, IL-10, MCP-I, IFNγ, IP-10 and MIG; assay: Serum inflammatory cytokine profile after rAAV-Luc, tetracycline pretreatment (Example 2); assay type: in vivo, piglets
Protocol: (§1) The effect of antibiotic pretreatment on the rAAV particle-induced toxicity e.g., inflammatory response and liver enzyme levels (e.g., toxicity) is examined by measuring levels of endogenous cytokines and liver enzymes AST and ALT in animals injected with rAAV8-Luc particles operably encoding luciferase nucleic acid.
(§2) Female piglets (n=5) are injected intravenously with either PBS alone (antibiotic control) or 25 mg/kg/day tetracycline in PBS 4 hours prior to intravenous administration of PBS alone (viral control) or 2×10^12 particles of rAAV-Luc vector. Small amounts of blood are collected aseptically obtained through the jugular vein at 30 minutes, 60 minutes, 90 minutes, 120 minutes, 1 day, 3 days, 10 days, 21 days, 28 days, 42 days, 60 days post-rAAV-Luc treatment, and serum is isolated. The serum is then analyzed for an inflammatory cytokine profile using the BD™ Cytometric Bead Array Mouse Inflammation Kit (BD™ CBA Mouse Inflammation Kit, BD Biosciences), specifically measuring levels of IL-2, IL-6, IL-7, IL-10, MCP-I, IFNγ, IP-10 and MIG. Liver transaminases e.g., AST and ALT are also measured at the above mentioned timepoints.

[2] = test system: liver enzymes AST and ALT; assay: Liver transaminases AST/ALT after rAAV-Luc, tetracycline pretreatment (Example 2); assay type: in vivo, piglets; settings: 25 mg/kg/day tetracycline i.v. 4 hours prior to 2×10^12 particles rAAV-Luc
Protocol: as §1, §2

[3] = test system: liver transaminases AST and ALT; assay: Liver transaminases AST/ALT after rAAV-Luc, tapering prednisone and tetracycline (Example 3); assay type: in vivo, piglets; settings: tetracycline 5-50 mg/kg/day, alone or with tapering prednisone from 25 mg/kg
Protocol: The effect of antibiotic treatment on rAAV particle-induced toxicity is examined by measuring levels of endogenous cytokines and liver transaminases e.g., AST and ALT in animals injected with rAAV-Luc particles operably encoding luciferase nucleic acid.
Female piglets (n=5) are pretreated with 25 mg/kg/day prednisolone 24 hours prior to rAAV8-luc (2×10^12 particles of rAAV-Luc particles) administration and then continued for 4 weeks. Then each week the prednisone is tapered by 5 mg/kg until no prednisone and continued for 15 weeks post AAV administration (2×10^12 particles per piglet). Tetracycline is then administered at 15 mg/kg/day for 16-24 weeks. Small amounts of blood are collected aseptically obtained through the jugular vein at 2 hrs, 4 hrs, 1 day, 3 days, 10 days, 21 days, 4 weeks, 8 weeks, 15 weeks, 24 weeks post-rAAV-Luc treatment, post-rAAV-Luc treatment, and serum is isolated.

[4] = test system: IL-8 levels and neutrophil accumulation and activation; settings: refractory asthma patients; Simpson et al. 2008; cited from earlier work
[5] = test system: Th1- and Th2-related chemokines; settings: upon stimulation; Kuo et al. 2019; cited from earlier work

In the case of `CN(C)[C@@H]1C(O)=C(C(N)=O)C(=O)[C@@]2(O)C(O)=C3C(=O)c4c(O)cccc4[C@@](C)(O)[C@H]3C[C@@H]12` [tetracycline, Tetracycline], the “inflammatory response (cytokine levels) resulting from rAAV-Luc vs antibiotic control” value ([1]; 25 mg/kg/day tetracycline i.v. 4 hours prior to 2×10^12 particles rAAV-Luc i.v.) is reported as “significantly reduce”, the “inflammatory response, tetracycline followed by PBS alone” value ([1]; 25 mg/kg/day tetracycline i.v., no vector) is reported as “no inflammatory response” and the “AST/ALT ratio with time” value [2] is reported as “less than 1”. The “AST/ALT levels vs control piglets” value [3] was “decreased significantly”.

In the case of `CC[C@H]1OC(=O)[C@H](C)[C@@H](O[C@H]2C[C@@](C)(OC)[C@@H](O)[C@H](C)O2)[C@H](C)[C@@H](O[C@@H]2O[C@H](C)C[C@H](N(C)C)[C@H]2O)[C@](C)(OC)C[C@@H](C)C(=O)[C@H](C)[C@@H](O)[C@]1(C)O` [clarithromycin, Clarithromycin], the “effect on IL-8 levels and neutrophil accumulation and activation” value [4] is listed as “modulate IL-8 levels and Neutophil accumulation and activation”.

For `CC[C@H]1OC(=O)[C@H](C)[C@@H](O[C@H]2C[C@@](C)(OC)[C@@H](O)[C@H](C)O2)[C@H](C)[C@@H](O[C@@H]2O[C@H](C)C[C@H](N(C)C)[C@H]2O)[C@](C)(O)C[C@@H](C)CN(C)[C@H](C)[C@@H](O)[C@]1(C)O` [Azithromycin], the “effect on Th1- and Th2-related chemokines” value [5] is listed as “suppress Th1- and Th2-related chemokines”.
